Source: patent US10087192B2, “2-(het)aryl-substituted fused bicyclic heterocycle derivatives as pesticides” (BAYER CROPSCIENCE AKTIENGESELLSCHSAFT, priority 2015, dated 2018)

How the values were obtained:
Type in all cases: in vivo
[1] = system: Myzus persicae; experiment: Myzus persicae spray test (Chinese cabbage leaf discs); settings: 500 g/ha, after 6 days
Procedure: Myzus persicae—Spray Test Solvent: 78 parts by weight of acetone • • 1.5 parts by weight of dimethylformamide Emulsifier: alkylaryl polyglycol ether […] To produce further test concentrations, the preparation is diluted with emulsifier-containing water. Discs of Chinese cabbage leaves (Brassica pekinensis) infested by all stages of the green peach aphid (Myzus persicae) are sprayed with an active compound preparation of the desired concentration.

[2] = system: Meloidogyne incognita; experiment: Meloidogyne incognita test; settings: 20 ppm, after 14 days, lettuce
Procedure: Meloidogyne incognita Test
Solvent: 125.0 parts by weight of acetone
To produce a suitable preparation of active compound, 1 part by weight of active compound is mixed with the stated amount of solvent and the concentrate is diluted with water to the desired concentration.
Vessels are filled with sand, active compound solution, an egg/larvae suspension of the southern root-knot nematode (Meloidogyne incognita) and lettuce seeds. The lettuce seeds germinate and the plants develop. The galls develop on the roots.
After 14 days, the nematicidal efficacy in % is determined by the formation of galls. 100% means that no galls were found; 0% means that the number of galls on the treated plants corresponds to the untreated control.

[3] = system: Phaedon cochleariae; experiment: Phaedon cochleariae spray test; settings: 500 g/ha, after 7 days, larvae on Chinese cabbage leaf discs
Procedure: Phaedon cochleariae—Spray Test
Solvent: 78.0 parts by weight of acetone • • 1.5 parts by weight of dimethylformamide
(§1) Emulsifier: alkylaryl polyglycol ether
(§2) To produce a suitable preparation of active compound, 1 part by weight of active compound is dissolved using the stated parts by weight of solvent and made up with water containing an emulsifier concentration of 1000 ppm until the desired concentration is attained. To produce further test concentrations, the preparation is diluted with emulsifier-containing water.
After 7 days, the efficacy in % is determined. 100% means that all the beetle larvae have been killed; 0% means that no beetle larvae have been killed.

[4] = system: Spodoptera frugiperda; experiment: Spodoptera frugiperda spray test (cotton leaves); settings: 100 ppm, after 7 days
Procedure: Spodoptera frugiperda—Spray Test
Solvent: 7 parts by weight of dimethylformamide
as §1
as §2, with “water. If the addition of ammonium salts or/and penetrants is required, these are each added in a concentration of 1000 ppm to the formulation solution.” for “water.”
Cotton leaves (Gossypium hirsutum) are sprayed with an active compound formulation of the desired concentration and populated with caterpillars of the armyworm (Spodoptera frugiperda).
After 7 days, the kill in % is determined. 100% means that all the caterpillars have been killed; 0% means that none of the caterpillars have been killed.

[5] = system: Lucilia cuprina; experiment: Lucilia cuprina test; settings: 100 ppm, after 2 days, L1 larvae
Procedure: (§3) Solvent: dimethyl sulphoxide
(§4) To produce a suitable preparation of active compound, 10 mg of active compound are mixed with 0.5 ml of dimethyl sulphoxide, and the concentrate is diluted with water to the desired concentration.
About 20 L1 larvae of the Australian sheep blowfly (Lucilia cuprina) are transferred into a test vessel containing minced horsemeat and the active compound preparation of the desired concentration.
After 2 days, the kill in % is determined. 100% means that all the larvae have been killed; 0% means that no larvae have been killed.

[6] = system: Ctenocephalides felis; experiment: Ctenocephalides felis in vitro contact test with adult cat fleas; settings: 5 μg/cm^2 (500 g/ha), after 48 h
Procedure: Ctenocephalides felis—In Vitro Contact Tests with Adult Cat Fleas
(§5) For the coating of the test tubes, 9 mg of active compound are first dissolved in 1 ml of acetone p.a. and then diluted to the desired concentration with acetone p.a. 250 μl of the solution are distributed homogeneously on the inner walls and the base of a 25 ml test tube by turning and rocking on an orbital shaker (rocking rotation at 30 rpm for 2 h). With 900 ppm active compound solution and internal surface 44.7 cm^2, given homogeneous distribution, an area-based dose of 5 μg/cm^2 is achieved.
After the solvent has evaporated off, the tubes are populated with 5-10 adult cat fleas (Ctenocephalides felis), sealed with a perforated plastic lid and incubated in a horizontal position at room temperature and ambient humidity. After 48 h, efficacy is determined. To this end, the test tubes are stood upright and the fleas are knocked to the base of the tube. Fleas which remain motionless at the base or move in an uncoordinated manner are considered to be dead or moribund.
100% efficacy means that all the fleas were dead or moribund. 0% efficacy means that no fleas were harmed.

[7] = system: Ctenocephalides felis; experiment: Ctenocephalides felis oral test; settings: 100 ppm in citrated cattle blood, after 2 days
Text: Ctenocephalides felis—Oral Test Solvent: dimethyl sulphoxide […] Dilution with citrated cattle blood gives the desired concentration. About 20 unfed adult cat fleas (Ctenocephalides felis) are placed into a chamber which is closed at the top and bottom with gauze. A metal cylinder whose bottom end is closed with parafilm is placed onto the chamber. The cylinder contains the blood/active compound preparation, which can be imbibed by the fleas through the parafilm membrane.

[8] = system: Rhipicephalus sanguineus; experiment: Rhipicephalus sanguineus in vitro contact test with adult brown dog ticks; settings: 5 μg/cm^2 (500 g/ha), after 48 h
Procedure: Rhipicephalus sanguineus—In Vitro Contact Tests with Adult Brown Dog Ticks
as §5
After the solvent has evaporated off, the tubes are populated with 5-10 adult dog ticks (Rhipicephalus sanguineus), sealed with a perforated plastic lid and incubated in a horizontal position in the dark at room temperature and ambient humidity. After 48 h, efficacy is determined. To this end, the ticks are knocked to the floor of the tube and incubated on a hotplate at 45-50° C. for not more than 5 min. Ticks which remain motionless on the floor or move in such an uncoordinated manner that they are unable to deliberately avoid the heat by climbing upwards are considered to be dead or moribund.
An efficacy of 100% means that all the ticks were dead or moribund. 0% efficacy means that none of the ticks had been harmed.

[9] = system: Musca domestica; experiment: Musca domestica test; settings: 20 ppm, after 2 days, adult houseflies
Procedure: as §3, §4
Vessels containing a sponge treated with sugar solution and the active compound preparation of the desired concentration are populated with 10 adult houseflies (Musca domestica).
After 2 days, the kill in % is determined. 100% means that all of the flies have been killed; 0% means that none of the flies have been killed.

[10] = system: Boophilus microplus; experiment: Boophilus microplus injection test; settings: 20 μg/animal, assessed after 7 days
Procedure: Boophilus microplus—Injection Test
as §3
To produce a suitable preparation of active compound, 10 mg of active compound are mixed with 0.5 ml of solvent and the concentrate is diluted with solvent to the desired concentration.
1 μl of the active compound solution is injected into the abdomen of 5 engorged adult female cattle ticks (Boophilus microplus). The animals are transferred into dishes and kept in a climate-controlled room.
Efficacy is assessed after 7 days by laying of fertile eggs. Eggs which are not visibly fertile are stored in a climate-controlled cabinet until the larvae hatch after about 42 days. An efficacy of 100% means that none of the ticks has laid any fertile eggs; 0% means that all the eggs are fertile.

[11] = system: Spodoptera frugiperda; experiment: Spodoptera frugiperda spray test (maize leaf discs); settings: 500 g/ha, after 7 days, caterpillars on maize leaf discs
Procedure: Spodoptera frugiperda—Spray Test Solvent: 78.0 parts by weight of acetone • • 1.5 parts by weight of dimethylformamide Emulsifier: alkylaryl polyglycol ether […] To produce further test concentrations, the preparation is diluted with emulsifier-containing water. Leaf discs of maize (Zea mays) are sprayed with an active compound preparation of the desired concentration and, after drying, populated with caterpillars of the armyworm (Spodoptera frugiperda).

SMILES	efficacy [1] [%]	nematicidal efficacy (formation of galls) [2] [%]	efficacy [3] [%]	efficacy (kill) [4] [%]	efficacy (kill) [5] [%]	efficacy [6] [%]	efficacy (kill) [7] [%]	efficacy [8] [%]	efficacy (kill) [9] [%]	efficacy (laying of fertile eggs) [10] [%]	efficacy [11] [%]
CCS(=O)(=O)c1ccc(-n2cnc(I)c2)nc1-c1nc2cc(C(F)(F)F)ncc2n1C [Example 14]	100	100	100	100	100	100	100				
CCS(=O)(=O)c1ccc(-n2nccn2)nc1-c1nc2cc(C(F)(F)F)ncc2n1C [Example 17]	90		100		100	100	98	100	85	100	100
CCS(=O)(=O)c1ccc(-n2cncn2)nc1-c1nc2cc(C(F)(F)F)ncc2n1C [Example 32]	100		100	100							
